Measured values reported in patent US7553966B2, “Glucocorticoid mimetics, methods of making them, pharmaceutical compositions, and uses thereof” (Boehringer Ingelheim Pharmaceuticals, Inc., priority 2002, dated 2009).

Key:
glucocorticoid receptor = assay: Glucocorticoid Receptor Cell Assays (agonist activity in one or more of the above assays); format: cell-based; settings: qualitative statement; assay not specified
Procedure: B. Glucocorticoid Receptor Cell Assays
1. Induction of Aromatase in Fibroblasts (Cell Assay for Transactivation)
Dexamethasone, a synthetic ligand to the glucocorticoid receptor (GR), induces expression of aromatase in human foreskin fibroblast cells. The activity of aromatase is measured by the conversion of testosterone to estradiol in culture media.
On the day of the experiment, the media in the wells is replaced with fresh media. Cells are treated with test compounds to final concentrations of 10^−5 M to 10^−8 M, and testosterone to a final concentration of 300 ng/mL. Each well has a total volume of 100 μL. Samples are made in duplicates. Control wells include: (a) wells that receive testosterone only, and (b) wells that receive testosterone plus 2 μM of dexamethasone to provide maximum induction of aromatase. Plates are incubated at 37° C. overnight (15 to 18 hours), and supernatants are harvested at the end of incubation. […] The amount of estradiol is inversely proportional to the ELISA signals in each well. The extent of aromatase induction by test compounds is expressed as a relative percentage to dexamethasone. EC50 values of test compounds are derived by non-linear curve fitting.
2. Inhibition of IL-6 Production in Fibroblasts (Cell Assay for Transrepression)
Human foreskin fibroblast cells produce IL-6 in response to stimulation by pro-inflammatory cytokine IL-1.
On the next day, media in the wells is replaced with fresh media. Cells are treated with IL-1 (rhIL-1α, R&D Systems Cat. No. 200-LA) to a final concentration of 1 ng/mL, and with test compounds to final concentrations of 10^−5 M to 10^−8 M, in a total volume of 200 μL per well. Samples are done in duplicates. […] Positive control wells receive IL-1 only and represent maximum (or 100%) amount of IL-6 production. Plates are incubated at 37° C. overnight (15 to 18 hours), and supernatants are harvested at the end of incubation. IL-6 levels in the supernatants are determined by the ELISA kits for IL-6 (MedSystems Diagnostics GmbH, Vienna, Austria, Cat. No. BMS213TEN) according to manufacture's instructions. The extent of inhibition of IL-6 by test compounds is expressed in percentage relative to positive controls. IC50 values of test compounds are derived by non-linear curve fitting.
Evaluation of agonist or antagonist activity of compounds binding to the glucocorticoid receptor may be determined by any of the assays.
3. Modulation of Tyrosine Aminotransferase (TAT) Induction in Rat Hepatoma Cells
Testing of compounds for agonist or antagonist activity in induction of tyrosine aminotransferase (TAT) in rat hepatoma cells.
H4-II-E-C3 cells were incubated overnight in 96 well plates (20,000 cells/100 μL/well) in MEM medium containing 10% heat inactivated FBS and 1% nonessential amino acids. On the next day, cells were stimulated with the indicated concentrations of dexamethasone or test compound (dissolved in DMSO, final DMSO concentration 0.2%) for 18 hours. Control cells were treated with 0.2% DMSO. After 18 hours, the cells were lysed in a buffer containing 0.1% Triton X-100 and the TAT activity was measured in a photometric assay using tyrosine and alpha-ketoglutarate as substrates.
For measuring antagonist activity, the hepatoma cells were pre-stimulated by addition of dexamethasone (concentration ranges from 3×10^−9 M to 3×10^−8 M) shortly before the test compound was applied to the cells.
4. Modulation of MMTV-Luc Induction in HeLa Cells
Testing of compounds for agonist or antagonist activity in stimulation of MMTV-(mouse mammary tumor virus) promoter in HeLa cells.
Cells were cultured overnight in DMEM medium without phenol red, supplemented with 3% CCS (charcoal treated calf serum) and then transferred to 96 well plates (15,000 cells/100 μL/well).

[1] = target: T1, human glucocorticoid receptor (GR) complex (Homo sapiens, UniProt P04150); assay: Glucocorticoid Receptor Competitive Binding Assay (fluorescence polarization, TAMRA-labeled dexamethasone probe); settings: qualitative statement; competition with TAMRA-labeled dexamethasone
T1 construct: made in house; host or cells: insect expression system (baculovirus lysate)
T1 sequence (P04150 1-777): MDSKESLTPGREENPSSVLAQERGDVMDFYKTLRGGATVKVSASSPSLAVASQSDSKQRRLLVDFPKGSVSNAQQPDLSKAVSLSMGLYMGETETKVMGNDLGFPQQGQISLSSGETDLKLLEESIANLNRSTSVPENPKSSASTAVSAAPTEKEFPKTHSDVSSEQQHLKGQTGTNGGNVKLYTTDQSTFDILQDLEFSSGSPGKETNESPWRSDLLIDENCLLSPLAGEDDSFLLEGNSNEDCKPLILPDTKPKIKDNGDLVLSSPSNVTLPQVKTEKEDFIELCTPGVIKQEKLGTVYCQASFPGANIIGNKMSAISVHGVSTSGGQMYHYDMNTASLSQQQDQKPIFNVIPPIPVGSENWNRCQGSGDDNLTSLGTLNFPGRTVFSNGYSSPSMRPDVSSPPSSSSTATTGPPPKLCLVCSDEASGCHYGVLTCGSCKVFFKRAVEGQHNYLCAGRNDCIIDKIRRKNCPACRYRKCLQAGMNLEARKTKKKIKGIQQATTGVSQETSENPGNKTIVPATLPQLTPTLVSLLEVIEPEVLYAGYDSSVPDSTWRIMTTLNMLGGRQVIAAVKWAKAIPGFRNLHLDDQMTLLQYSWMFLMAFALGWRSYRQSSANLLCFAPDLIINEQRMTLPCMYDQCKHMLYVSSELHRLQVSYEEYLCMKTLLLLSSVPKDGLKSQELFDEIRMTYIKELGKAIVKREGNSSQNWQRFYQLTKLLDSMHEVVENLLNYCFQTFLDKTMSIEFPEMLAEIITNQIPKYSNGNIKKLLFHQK
Summary of the method: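 Competition with TAMRA-dexamethasone for a human GR complex expressed in insect cells, read by fluorescence polarization. Buffer was 10 mM TES, 50 mM KCl, 20 mM Na2MoO4, 1.5 mM EDTA, 0.04% CHAPS, 10% glycerol, 1 mM DTT, pH 7.4.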

CC(C)(CC(O)(Cn1cc(C#N)c2ccccc21)C(F)(F)F)c1cccc2c1OCC2 (stereo not shown)
activity as agonists of the glucocorticoid receptor function in one or more of the above assays (glucocorticoid receptor): potent agonists

CC(C)(CC(O)(Cc1cc2cc(C#N)ccc2[nH]1)C(F)(F)F)c1cccc2c1OCC2 (stereo not shown)
activity as agonists of the glucocorticoid receptor function in one or more of the above assays (glucocorticoid receptor): potent agonists

COc1ccc(Br)cc1C(C)(C)CC(O)(Cc1cc2c(C)cc(C#N)cc2[nH]1)C(F)(F)F (stereo not shown)
activity as agonists of the glucocorticoid receptor function in one or more of the above assays (glucocorticoid receptor): potent agonists

COc1ccccc1C(C)(C)CC(O)(Cc1cc2ccccc2[nH]1)C(F)(F)F (stereo not shown) [1,1,1-Trifluoro-2-(1H-indol-2-ylmethyl)-4-(2-methoxyphenyl)-4-methylpentan-2-ol]
activity in the GR binding assay [1]: potent activity
activity as agonists of the glucocorticoid receptor function in one or more of the above assays (glucocorticoid receptor): potent agonists

CC(C)(CC(O)(Cc1cc2ccccc2[nH]1)C(F)(F)F)c1cccc(C(F)(F)F)c1 (stereo not shown) [1,1,1-Trifluoro-2-(1H-indol-2-ylmethyl)-4-methyl-4-(3-trifluoromethylphenyl)pentan-2-ol]
activity in the GR binding assay [1]: potent activity
activity as agonists of the glucocorticoid receptor function in one or more of the above assays (glucocorticoid receptor): potent agonists

Cc1cc2c(c(C(C)(C)CC(O)(Cc3cc4ccccc4[nH]3)C(F)(F)F)c1)OCC2 (stereo not shown) [1,1,1-Trifluoro-2-(1H-indol-2-ylmethyl)-4-methyl-4-(5-methyl-2,3-dihydrobenzofuran-7-yl)pentan-2-ol]
activity in the GR binding assay [1]: potent activity
activity as agonists of the glucocorticoid receptor function in one or more of the above assays (glucocorticoid receptor): potent agonists

Cc1cccc(C(C)(C)CC(O)(Cc2cc3ccccc3[nH]2)C(F)(F)F)c1 (stereo not shown) [1,1,1-Trifluoro-2-(1H-indol-2-ylmethyl)-4-methyl-4-m-tolylpentan-2-ol]
activity in the GR binding assay [1]: potent activity
activity as agonists of the glucocorticoid receptor function in one or more of the above assays (glucocorticoid receptor): potent agonists

Cc1ccccc1C(C)(C)CC(O)(Cc1cc2ccccc2[nH]1)C(F)(F)F (stereo not shown) [1,1,1-Trifluoro-2-(1H-indol-2-ylmethyl)-4-methyl-4-o-tolylpentan-2-ol]
activity in the GR binding assay [1]: potent activity
activity as agonists of the glucocorticoid receptor function in one or more of the above assays (glucocorticoid receptor): potent agonists

COc1ccc(F)cc1C(C)(C)CC(O)(Cc1cc2cccc(F)c2[nH]1)C(F)(F)F (stereo not shown) [1,1,1-Trifluoro-2-(7-fluoro-1H-indol-2-ylmethyl)-4-(5-fluoro-2-methoxyphenyl)-4-methylpentan-2-ol]
activity in the GR binding assay [1]: potent activity
activity as agonists of the glucocorticoid receptor function in one or more of the above assays (glucocorticoid receptor): potent agonists

COc1ccccc1C(C)(C)CC(O)(Cc1ccnc2ccccc12)C(F)(F)F (stereo not shown) [1,1,1-Trifluoro-4-(2-methoxyphenyl)-4-methyl-2-quinolin-4-ylmethylpentan-2-ol]
activity in the GR binding assay [1]: potent activity
activity as agonists of the glucocorticoid receptor function in one or more of the above assays (glucocorticoid receptor): potent agonists

Cc1cccc2[nH]c(CC(O)(CC(C)(C)c3cccc(F)c3)C(F)(F)F)cc12 (stereo not shown) [1,1,1-Trifluoro-4-(3-fluorophenyl)-4-methyl-2-(4-methyl-1H-indol-2-ylmethyl)pentan-2-ol]
activity in the GR binding assay [1]: potent activity
activity as agonists of the glucocorticoid receptor function in one or more of the above assays (glucocorticoid receptor): potent agonists

COc1cccc(C(C)(C)CC(O)(Cc2ccnc3ccccc23)C(F)(F)F)c1 (stereo not shown) [1,1,1-Trifluoro-4-(3-methoxyphenyl)-4-methyl-2-quinolin-4-ylmethylpentan-2-ol]
activity in the GR binding assay [1]: potent activity
activity as agonists of the glucocorticoid receptor function in one or more of the above assays (glucocorticoid receptor): potent agonists

COc1cc(F)ccc1C(C)(C)CC(O)(Cc1cc2ccccc2[nH]1)C(F)(F)F (stereo not shown) [1,1,1-Trifluoro-4-(4-fluoro-2-methoxyphenyl)-2-(1H-indol-2-ylmethyl)-4-methylpentan-2-ol]
activity in the GR binding assay [1]: potent activity
activity as agonists of the glucocorticoid receptor function in one or more of the above assays (glucocorticoid receptor): potent agonists

COc1cc(F)ccc1C(C)(C)CC(O)(Cc1cc2ccncc2[nH]1)C(F)(F)F (stereo not shown) [1,1,1-Trifluoro-4-(4-fluoro-2-methoxyphenyl)-4-methyl-2-(1H-pyrrolo[2,3-c]pyridin-2-ylmethyl)pentan-2-ol]
activity in the GR binding assay [1]: potent activity
activity as agonists of the glucocorticoid receptor function in one or more of the above assays (glucocorticoid receptor): potent agonists

COc1cc(F)ccc1C(C)(C)CC(O)(Cc1cc2cnccc2[nH]1)C(F)(F)F (stereo not shown) [1,1,1-Trifluoro-4-(4-fluoro-2-methoxyphenyl)-4-methyl-2-(1H-pyrrolo[3,2-c]pyridin-2-ylmethyl)pentan-2-ol]
activity in the GR binding assay [1]: potent activity
activity as agonists of the glucocorticoid receptor function in one or more of the above assays (glucocorticoid receptor): potent agonists

COc1cc(F)ccc1C(C)(C)CC(O)(Cc1ccnc2c1CCCC2)C(F)(F)F (stereo not shown) [1,1,1-Trifluoro-4-(4-fluoro-2-methoxyphenyl)-4-methyl-2-(5,6,7,8-tetrahydroquinolin-4-ylmethyl)pentan-2-ol]
activity in the GR binding assay [1]: potent activity
activity as agonists of the glucocorticoid receptor function in one or more of the above assays (glucocorticoid receptor): potent agonists

COc1cc(F)ccc1C(C)(C)CC(O)(Cc1ccnc2ccccc12)C(F)(F)F (stereo not shown) [1,1,1-Trifluoro-4-(4-fluoro-2-methoxyphenyl)-4-methyl-2-quinolin-4-ylmethylpentan-2-ol]
activity in the GR binding assay [1]: potent activity
activity as agonists of the glucocorticoid receptor function in one or more of the above assays (glucocorticoid receptor): potent agonists

Cc1ccc(F)cc1C(C)(C)CC(O)(Cc1cc2ccncc2[nH]1)C(F)(F)F (stereo not shown) [1,1,1-Trifluoro-4-(5-fluoro-2-methylphenyl)-4-methyl-2-(1H-pyrrolo[2,3-c]pyridin-2-ylmethyl)pentan-2-ol]
activity as agonists of the glucocorticoid receptor function in one or more of the above assays (glucocorticoid receptor): potent agonists

COc1ccc(F)cc1C(C)(C)CC(O)(Cc1cc2ccccc2[nH]1)C1CC1 (stereo not shown) [2-Cyclopropyl-4-(5-fluoro-2-methoxyphenyl)-1-(1H-indol-2-yl)-4-methylpentan-2-ol]
activity as agonists of the glucocorticoid receptor function in one or more of the above assays (glucocorticoid receptor): agonists

CC(C)(CC(O)(Cc1[nH]c2ccccc2c1C#N)C(F)(F)F)c1cccc2c1OCC2 (stereo not shown) [2-[4-(2,3-Dihydrobenzofuran-7-yl)-2-hydroxy-4-methyl-2-trifluoromethylpentyl]-1H-indole-3-carbonitrile]
activity as agonists of the glucocorticoid receptor function in one or more of the above assays (glucocorticoid receptor): potent agonists
